Test results from US7390822B2, “Substituted 4-phenyl-4-[1H-imidazol-2-yl]-piperidine derivatives for reducing ischaemic damage” (Janssen Pharmaceutica, N.V., priority 2001, dated 2008).
Where “and” joins values, the source holds several entries; their conditions need not be identical. Equal values may be shown once.

Key:
[1] = system: sheep heart (left ventricle); experiment: Sheep model (normothermic myocardial ischaemia during extra corporal circulation); format: in vivo
Protocol: The model is a sheep anaesthetized with ketamine and isoflurane. The extra corporal circulation is connected by venous cannulation of both caval veins and arterial cannulation via the carotid. An additional cannula with flow meter in the right ventricle gives the flow rate over the coronary arteries. In addition to measurements of heart rate and arterial blood pressure, the left ventricle instantaneous pressure is measured as well as the left ventricle volumes via a conductance catheter. There is also a side-tubing on the arterial cannula of the artificial heart leading to the pulmonary artery. Via this route it is possible to modulate the left ventricle preload in a perfectly controlled manner in order to obtain load-independent measurements of the left ventricle contractility before and after the study period of ischaemia. Cardiac oxygen consumption was also measured as well as regional perfusion with the aid of coloured microspheres.
The study period of ischaemia was 30 minutes while the heart remained normothermic and was fully unloaded by the extra corporal circulation and venting of the ventricles. The control group was time-matched with the other groups. The ischaemic preconditioning group was subjected to 3 times 5 minutes of preconditioning ischaemia with 5 minute reperfusion intervals. In the three groups extra corporal circulation was started 30 minutes before the study period of ischaemia was imposed. The extra corporal circulation was stopped 40 minutes after the end of the study period of ischaemia. […] Only these four will be processed here. In the other groups, 7 experiments are always processed. Before each measurement of pressure-volume ratios in the left ventricle the system was switched to the right heart bypass model in which the venous flow is diverted into the extra corporal circulation via the caval veins and the blood is returned to the sheep via the pulmonary artery.

[2] = system: rat heart; experiment: Rat-Langendorff model (isolated perfused heart, ischaemia/reperfusion); conditions: individual rat hearts; for EDP: Degree of normalisation of EDP during reperfusion (amount above baseline EDP): 0 = recuperation to baseline EDP; for IC: Ischemic contracture: 4 μg/500 ml buffer, 20 min ischaemia; for Vfib: Number of ventricullar fibrillations during reperfusion: 40 min reperfusion
Protocol: A rat heart is rapidly dissected, attached by the aorta to a cannula and perfused with a physiological buffer (modified Krebs-Henseleit buffer: NaCl 118 mmol/l, KCl 4.7 mmol/l, MgSO4 1.2 mmol/l, KH2PO4 1.2 mmol/l, CaCl2 1.8 mmol/l, NaHCO3 23 mmol/l, glucose 11 mmol/l) without blood under 80 mmHg perfusion pressure. Oxygen is dissolved in the physiological buffer. The heart is paced atrially at 350 beats per minute. A balloon that can be optionally filled (adjustment preload) is inserted into the left ventricle. Diastolic pressure and the pressure developped are measured as well as the maximal rate of pressure development as a measure of contractility (inotropism) and the minimal rate of pressure decay as a measure of relaxation. Advantages of this model are: the heart is isolated and studied in controlled circumstances without interaction with other organs and the method is reasonably rapid and cheap. Disadvantages are: no blood perfusion, with only dissolved oxygen, therefore greater coronary flow rates with considerable vasodilatation of the coronary system; a closed system without metabolism and without interaction with other organs and a small animal model, relatively far away from clinical reality.
The study period of ischaemia is 20 minutes. The measurements after the study period of ischaemia (reperfusion phase) always last 40 minutes. Measurements before the study period of ischaemia last 30 minutes and are performed after stabilization. In the ischaemic preconditioning group the following is measured during these 30 minutes: 10 minutes baseline, 5 minutes ischaemia, 5 minutes reperfusion, 5 minutes ischaemia and 5 minutes reperfusion. In the group of the compounds according to the invention (4 μg/500 ml buffer solution) there is first 15 minutes baseline followed by 15 minutes treatment. Consequently, everything is time-matched.

[3] = biological target: cloned human μ opioid receptor (Homo sapiens, UniProt P35372); experiment: Radioligand binding, competition with [3H]DAMGO; conditions: read-out: Agonist receptor binding (pIC50) mu (converted)
Chain of cloned human μ opioid receptor (P35372 whole entry): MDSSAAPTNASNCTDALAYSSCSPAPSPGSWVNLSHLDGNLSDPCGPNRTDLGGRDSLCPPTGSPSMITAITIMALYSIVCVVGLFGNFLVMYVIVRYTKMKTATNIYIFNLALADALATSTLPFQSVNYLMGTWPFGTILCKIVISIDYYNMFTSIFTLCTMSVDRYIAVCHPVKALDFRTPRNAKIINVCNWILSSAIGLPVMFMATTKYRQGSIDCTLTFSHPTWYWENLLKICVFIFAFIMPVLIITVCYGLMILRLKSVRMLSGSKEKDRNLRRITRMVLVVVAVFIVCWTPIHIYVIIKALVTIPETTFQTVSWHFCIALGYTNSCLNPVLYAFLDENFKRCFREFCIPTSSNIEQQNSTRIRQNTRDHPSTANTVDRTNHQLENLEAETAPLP

CCOC(=O)N1CCC(c2ccccc2)(c2nccn2Cc2ccccc2)CC1 [Compound 1, ethyl 4-phenyl-4-[1-(phenylmethyl)-1H-imidazol-2-yl]-1-piperidinecarboxylate]
Tau (ventricular relaxation) ([1]; compared to control group 70 and 100 minutes after end of ischaemia): significantly lower
Preload recruitable stroke work (PRSW) ([1]; compared to control group after 70 and 100 minutes of reperfusion): significantly better
Cardiac flow after reperfusion ([1]; compared to control group, no significant difference): tendency for cardiac flow to be higher
Contractile efficacy (O2-consumption converted into PVA) ([1]; control group 32.8%, ischaemic preconditioning group 44.5%, p<0.001): 46.7%
Recup: % recuperation in developed pressure at the end of reperfusion [2]: 92% and 85% and 82%
EDP: Degree of normalisation of EDP during reperfusion (amount above baseline EDP) [2]: 0 mmHg and +7 mmHg and +8 mmHg
IC: Ischemic contracture [2]: 4 mmHg and 6 mmHg and 8 mmHg
Vfib: Number of ventricullar fibrillations during reperfusion [2]: 0 (2×) and 1 (short)

O=C(c1ccccc1)N1CCC(c2ccccc2)(c2nccn2Cc2ccccc2)CC1 [Compound 2]
melting point: 122.7 °C

CCOC(=O)N1CCC(c2ccccc2)(c2nccn2Cc2ccc(C(=O)OC)cc2)CC1 [Compound 3]
melting point: 149.1 °C

CCN/C(=N/C#N)N1CCC(c2ccccc2)(c2nccn2Cc2ccccc2)CC1 [Compound 4]
melting point: 84.2 °C

CCOC(=O)N1CCC(c2ccccc2)(c2nccn2Cc2ccc(C(=O)O)cc2)CC1 [Compound 8]
melting point: 251.6 °C

CCCOC(=O)N1CCC(c2ccccc2)(c2nccn2Cc2ccccc2)CC1 [Compound 24]
Recup: % recuperation in developed pressure at the end of reperfusion [2]: 91% and 85% and 87%
EDP: Degree of normalisation of EDP during reperfusion (amount above baseline EDP) [2]: 0 mmHg and +5 mmHg and +7 mmHg
IC: Ischemic contracture [2]: 10 mmHg and 5 mmHg and 7 mmHg
Vfib: Number of ventricullar fibrillations during reperfusion [2]: 0 (2×) and 1 (short)

CC(C)OC(=O)N1CCC(c2ccccc2)(c2nccn2Cc2ccccc2)CC1 [Compound 25]
Recup: % recuperation in developed pressure at the end of reperfusion [2]: 79% and 85% and 75%
EDP: Degree of normalisation of EDP during reperfusion (amount above baseline EDP) [2]: +6 mmHg (2×) and +10 mmHg
IC: Ischemic contracture [2]: 5 mmHg and 7 mmHg (2×)
Vfib: Number of ventricullar fibrillations during reperfusion [2]: 0 and 1 (short) and 2 (short)

COC(=O)c1ccc(Cn2ccnc2C2(c3ccccc3)CCN(c3nc4ccccc4o3)CC2)cc1 [Compound 102]
IC50 [3]: > 1000 nM
